A word on the IC50: it is the point on the concentration scale where inhibition reaches its midpoint. A word on the EC50: it is the concentration that produces a half-maximal response.

The values below come from US20190225650A1, “PEPTIDOMIMETIC MACROCYCLES AND USE THEREOF IN REGULATING HIF1ALPHA” (AILERON THERAPEUTICS, INC., priority 2013, published 2019).

Bridge positions count the residues as written; N and C are the ends. Square brackets hold non-standard residues; d marks the D form. Peptide text beside a SMILES is read from it. Phe(4-COOH) = N[C@@H](Cc1ccc(C(=O)O)cc1)C(=O)O; R8 = C=CCCCCCC[C@@](C)(N)C(=O)O; S5 = C=CCCC[C@](C)(N)C(=O)O; Nle = CCCC[C@H](N)C(=O)O

Experiment [1] has as its target T1, flag-tagged HIF1α (AA 786-826) / His6-tagged p300 (AA 323-423) complex (Homo sapiens, UniProt Q09472).
T1 construct: His6-tagged p300 (AA 323-423); made in house; host or cells: E. coli (pETDuet vector)
The experiment is described as follows: HIF1α p300 displacement assay (TR FRET, +CHAPS). It counts as binding. As to conditions: read-out: IC50 (nM) (HIF1α_p300 Displacement + CHAPS). Put shortly:
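The co-expressed flag-HIF1α (786-826)/His6-p300 (323-423) complex, purified from E. coli with 0.1 mM ZnSO4, was used at 300 nM final with competitor peptides for 1 h at room temperature. Buffer was 150 mM NaCl, 20 mM HEPES pH 7.4, 7.5 mM CHAPS and 1 mM DTT. Anti-Flag-K (0.5 μM) and anti-His-D2 (4 nM) were then added for 2 h, and IC50s were fitted from the TR-FRET ratio.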
(In general: Time-resolved FRET reads energy transfer from a long-lived donor to a nearby acceptor.)

Experiment [2] has as its system HRE-bla ME-180 cells. Briefly: Reporter gene assay (HRE-bla ME-180 HIF reporter, GeneBLAzer). It counts as cell-based, human. As to conditions: for EC50: 24 hour normoxia. Summed up: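 A FRET β-lactamase readout of HIF transcription was used. After compound treatment in 0.3% DMSO/media under normoxic conditions, 20 μl of 6× LiveBLAzer-FRET B/G (CCF4-AM) substrate was added. Plates sat 3 hr at room temperature in the dark and were read at 409 Ex/460Em and 409Ex/530Em on a Synergy 2. Inhibition was compared against DMSO vehicle controls, with chetomin as positive control.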
On the technique in general: A reporter such as luciferase makes a cellular process visible.

The subject of experiment [3] is HRE-bla ME-180 cells. The experiment is described as follows: Cell proliferation assay (viability, MTT, 1% FBS). Format: cell-based, human. Put shortly: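 ME-180 cells (2×10^4/well) in Opti-MEM with 1% FBS were pretreated 16 h under normoxia (21% O2), vehicle 0.5% DMSO final. Incubation then continued under normoxia or hypoxia (1% O2); viable cells quantified by MTT-type CellTiter 96 assay.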

On to `CCCC[C@H](NC(=O)[C@H](Cc1ccccc1)NC(=O)[C@@H](NC(=O)[C@H](C)NC(=O)[C@H](CCC(=O)O)NC(=O)[C@H](CC(=O)O)NC(=O)[C@@H](NC(=O)[C@H](Cc1ccccc1)NC(C)=O)[C@@H](C)CC)C(C)C)C(=O)N[C@@]1(C)CCCC=CCCC[C@@](C)(C(=O)N[C@@H](CCCC)C(=O)N[C@@H](C)C(=O)N[C@@H](CC(C)C)C(=O)N[C@@H](CC(C)C)C(N)=O)NC(=O)[C@H]([C@@H](C)CC)NC(=O)[C@H](C(C)C)NC(=O)[C@H](CC(C)C)NC1=O` [SP-249] (Ac-FIDEAVF[Nle][S5]LVI[S5][Nle]ALL-NH2; staple 9-13), for which, in experiment [1], the IC50 is more than 700 nM. Besides, in the experiment with HRE-bla ME-180 cells [2], the “18 h Avg % max inhibition at top conc (HIF Rptr-24 hrs normoxia) (μM)” value (“18 h Avg % max inhibition at top conc” below) was “+ (<10: +)” and the EC50 is more than 30 µM. Besides, the “Viability 1% FBS AVG (MTT V3-24 hr Normoxia) (μM)” value (“Viability 1% FBS AVG” below) in the experiment with HRE-bla ME-180 cells [3] is “++++ (≥30: ++++)”.
As to `CCCC[C@H](NC(=O)[C@H](CCC(=O)O)NC(=O)[C@]1(C)CCCC=CCCCCCC[C@@](C)(NC(=O)[C@H](CCC(=O)O)NC(=O)[C@H](CC(=O)O)NC(=O)[C@@H](NC(=O)[C@H](Cc2ccccc2)NC(C)=O)[C@@H](C)CC)C(=O)N[C@@H](C(C)C)C(=O)N[C@@H](CC(C)C)C(=O)N[C@@H](CCCC)C(=O)N[C@@H](CO)C(=O)N[C@@H](CC(C)C)C(=O)N[C@@H](C(C)C)C(=O)N1)C(=O)N[C@@H](C)C(=O)N[C@@H](CC(C)C)C(N)=O` [SP-195] (Ac-FIDE[R8]VL[Nle]SLV[S5]E[Nle]AL-NH2; staple 5-12), the IC50 in experiment [1] lay within 400 to 700 nM. Moreover, in the experiment with HRE-bla ME-180 cells [2], the “18 h Avg % max inhibition at top conc” value is “++++ (≥50: ++++)” and the EC50 was not above 5 µM. The “Viability 1% FBS AVG” value in the experiment with HRE-bla ME-180 cells [3] is “++ (≤5 but <15: ++)”.
In the case of `CCCC[C@H](NC(=O)[C@H](CCC(=O)O)NC(=O)[C@@H](NC(=O)[C@@H](NC(=O)[C@H](C)NC(=O)[C@]1(C)CCCC=CCCC[C@](C)(NC(=O)[C@H](CCC(=O)O)NC(=O)[C@H](CC(=O)O)NC(=O)[C@@H](NC(=O)[C@H](Cc2ccccc2)NC(C)=O)[C@@H](C)CC)C(=O)N[C@@H](C(C)C)C(=O)N[C@@H](CC(C)C)C(=O)N[C@@H](CCCC)C(=O)N1)C(C)C)[C@@H](C)CC)C(=O)N[C@@H](C)C(=O)N[C@@H](CC(C)C)C(N)=O` [SP-142] (Ac-FIDE[S5]VL[Nle][S5]AVIE[Nle]AL-NH2; staple 5-9), in experiment [1], the IC50 fell in the range of 400 to 700 nM. Also, in the experiment on HRE-bla ME-180 cells [2], the “18 h Avg % max inhibition at top conc” value is “+++ (≤25 but <50: +++)” and the EC50 is more than 30 µM. For the same compound, in the experiment with HRE-bla ME-180 cells [3], the “Viability 1% FBS AVG” value is “++++ (≥30: ++++)”.
The matching figures for `CCCC[C@H](NC(=O)[C@H](CCC(=O)O)NC(=O)[C@@H](NC(=O)[C@@H](NC(=O)[C@H](CO)NC(=O)[C@]1(C)CCCC=CCCC[C@](C)(NC(=O)[C@H](CCC(=O)O)NC(=O)[C@H](CC(=O)O)NC(=O)[C@@H](NC(=O)[C@H](Cc2ccccc2)NC(C)=O)[C@@H](C)CC)C(=O)N[C@@H](C(C)C)C(=O)N[C@@H](CC(C)C)C(=O)N[C@@H](CCCC)C(=O)N1)C(C)C)[C@@H](C)CC)C(=O)N[C@@H](C)C(=O)N[C@@H](CC(C)C)C(N)=O` [SP-144] (Ac-FIDE[S5]VL[Nle][S5]SVIE[Nle]AL-NH2; staple 5-9): 400 to 700 nM, “++++ (≥50: ++++)”, more than 30 µM and “+++ (≤15 but <30: +++)”.
In the case of `CCCC[C@@H]1NC(=O)[C@H](CC(C)C)NC(=O)[C@H](C(C)C)NC(=O)[C@@](C)(NC(=O)[C@H](CCC(=O)O)NC(=O)[C@H](CC(=O)O)NC(=O)[C@@H](NC(=O)[C@H](Cc2ccccc2)NC(C)=O)[C@@H](C)CC)CCCC=CCCC[C@@](C)(C(=O)N[C@@H](CC(C)C)C(=O)N[C@H](C(=O)N[C@H](C(=O)N[C@@H](CCC(=O)O)C(=O)N[C@@H](CO)C(=O)N[C@@H](C)C(=O)N[C@@H](CC(C)C)C(N)=O)[C@@H](C)CC)C(C)C)NC1=O` [SP-147] (Ac-FIDE[S5]VL[Nle][S5]LVIESAL-NH2; staple 5-9), the IC50 in experiment [1] is more than 700 nM. Further, in the experiment on HRE-bla ME-180 cells [2], the “18 h Avg % max inhibition at top conc” value is reported as “+++ (≤25 but <50: +++)” and the EC50 was 15 to 30 µM. Moreover, the “Viability 1% FBS AVG” value in the experiment on HRE-bla ME-180 cells [3] is reported as “++++ (≥30: ++++)”.
As for `CC[C@H](C)[C@H](NC(=O)[C@H](Cc1ccccc1)NC(C)=O)C(=O)N[C@@H](CC(=O)O)C(=O)N[C@@H](Cc1ccc(C(=O)O)cc1)C(=O)N[C@@H](CCC(=O)O)C(=O)N[C@H](C(=O)N[C@@H](CC(C)C)C(=O)N[C@@H](CCSC)C(=O)N[C@@]1(C)CCCC=CCCC[C@@](C)(C(=O)N[C@@H](CCSC)C(=O)N[C@@H](C)C(=O)N[C@@H](Cc2ccccc2)C(N)=O)NC(=O)[C@H]([C@@H](C)CC)NC(=O)[C@H](C(C)C)NC(=O)[C@H](CC(C)C)NC1=O)C(C)C` [SP-228] (Ac-FID[Phe(4-COOH)]EVLM[S5]LVI[S5]MAF-NH2; staple 9-13), the IC50 in experiment [1] was in the range of 200 to 400 nM. For the same compound, in the experiment on HRE-bla ME-180 cells [2], the “18 h Avg % max inhibition at top conc” value was “+++ (≤25 but <50: +++)” and the EC50 was more than 30 µM. The “Viability 1% FBS AVG” value in the experiment on HRE-bla ME-180 cells [3] is on record as “++++ (≥30: ++++)”.
The like results for `CCCC[C@@H]1NC(=O)[C@H](CC(C)C)NC(=O)[C@H](C(C)C)NC(=O)[C@@](C)(NC(=O)[C@H](CCC(=O)O)NC(=O)[C@H](CC(=O)O)NC(=O)[C@@H](NC(=O)[C@H](Cc2ccccc2)NC(C)=O)[C@@H](C)CC)CCCC=CCCC[C@@](C)(C(=O)N[C@@H](CC(C)C)C(=O)N[C@H](C(=O)N[C@H](C(=O)N[C@@H](CCC(=O)O)C(=O)N[C@@H](CCC(N)=O)C(=O)N[C@@H](C)C(=O)N[C@@H](CC(C)C)C(N)=O)[C@@H](C)CC)C(C)C)NC1=O` [SP-146] (Ac-FIDE[S5]VL[Nle][S5]LVIEQAL-NH2; staple 5-9) were, in that order, more than 700 nM, “+++ (≤25 but <50: +++)”, more than 30 µM and “++++ (≥30: ++++)”.
As for `CCCC[C@H](NC(=O)[C@]1(C)CCCC=CCCC[C@](C)(NC(=O)[C@H](C)NC(=O)[C@H](Cc2ccccc2)NC(=O)[C@@H](NC(=O)[C@H](CCC(=O)O)NC(=O)[C@H](CCC(=O)O)NC(=O)[C@H](CC(=O)O)NC(=O)[C@@H](NC(=O)[C@H](Cc2ccccc2)NC(C)=O)[C@@H](C)CC)C(C)C)C(=O)N[C@@H](CC(C)C)C(=O)N[C@@H](C(C)C)C(=O)N[C@@H]([C@@H](C)CC)C(=O)N1)C(=O)N[C@@H](C)C(=O)N[C@@H](CC(C)C)C(=O)N[C@@H](CC(C)C)C(N)=O` [SP-246] (Ac-FIDEEVFA[S5]LVI[S5][Nle]ALL-NH2; staple 9-13), the IC50 in experiment [1] is more than 700 nM. Also, in the experiment on HRE-bla ME-180 cells [2], the “18 h Avg % max inhibition at top conc” value is “+ (<10: +)” and the EC50 was more than 30 µM. Moreover, the “Viability 1% FBS AVG” value in the experiment with HRE-bla ME-180 cells [3] is given as “++++ (≥30: ++++)”.
Consider `CCCC[C@H](NC(=O)[C@H](CCC(=O)O)NC(=O)[C@@H](NC(=O)[C@]1(C)CCCC=CCCC[C@](C)(NC(=O)[C@@H](NC(=O)[C@H](CCC(=O)O)NC(=O)[C@H](CCC(=O)O)NC(=O)[C@H](CC(=O)O)NC(=O)[C@@H](NC(=O)[C@H](CC(N)=O)NC(=O)[C@@H](NC(=O)[C@]2(C)CCCC=CCCCCCC[C@@](C)(NC(=O)[C@H](CCC(=O)O)NC(=O)CNC(=O)[C@H](CCC(N)=O)NC(=O)[C@H](CC(C)C)NC(=O)[C@H](CC(C)C)NC(C)=O)C(=O)N[C@@H](CC(C)C)C(=O)N[C@@H](CC(C)C)C(=O)N[C@@H](CCCNC(=N)N)C(=O)N[C@@H](C)C(=O)N[C@@H](CC(C)C)C(=O)N[C@@H](CC(=O)O)C(=O)N2)C(C)C)[C@@H](C)CC)C(C)C)C(=O)N[C@@H](CCCC)C(=O)N[C@@H](CO)C(=O)N[C@@H](CC(C)C)C(=O)N1)[C@@H](C)CC)C(=O)NCC(N)=O` [SP-305] (Ac-LLQGE[R8]LLRALD[S5]VNIDEEV[S5][Nle]SL[S5]IE[Nle]G-NH2; staple 6-13, 21-25), for which the IC50 in experiment [1] is not above 200 nM. In the experiment with HRE-bla ME-180 cells [2], the “18 h Avg % max inhibition at top conc” value is listed as “++++ (≥50: ++++)” and the EC50 was more than 30 µM. The “Viability 1% FBS AVG” value in the experiment with HRE-bla ME-180 cells [3] is reported as “++++ (≥30: ++++)”.
`CCCC[C@H](NC(=O)[C@H](CC(C)C)NC(=O)[C@@H](NC(=O)[C@H](CCC(=O)O)NC(=O)[C@H](CCC(=O)O)NC(=O)[C@H](CC(=O)O)NC(=O)[C@@H](NC(=O)[C@H](Cc1ccccc1)NC(C)=O)[C@@H](C)CC)C(C)C)C(=O)N[C@@]1(C)CCCC=CCCC[C@@](C)(C(=O)N[C@@H](CCCC)C(=O)N[C@@H](C)C(=O)N[C@@H](Cc2ccccc2)C(N)=O)NC(=O)[C@H]([C@@H](C)CC)NC(=O)[C@H](C(C)C)NC(=O)[C@H](CC(C)C)NC1=O` [SP-220] (Ac-FIDEEVL[Nle][S5]LVI[S5][Nle]AF-NH2; staple 9-13): the IC50 in experiment [1] was more than 700 nM. Besides, in the experiment on HRE-bla ME-180 cells [2], the “18 h Avg % max inhibition at top conc” value is given as “+ (<10: +)” and the EC50 is more than 30 µM. In addition, the “Viability 1% FBS AVG” value in the experiment with HRE-bla ME-180 cells [3] is “++++ (≥30: ++++)”.
